In assay [1] the test system is lipid peroxidation in liver homogenate. Nature of the assay: Inhibitory effect on lipid peroxidation (LPO) in liver homogenate, TBARS. Format: biochemical, Sprague Dawley rats. Particulars: isolates and standards; rat liver homogenate; mean ± SD, n = 3; read-out: Antioxidant Activity (IC50) LPO. The text has this: Assay for inhibitory effect of lipid peroxidation. Male Sprague Dawley rats were used in the […]
Technology (approval number: […]-2018-081). Experimental animals were […]
anesthetized with isoflurane and dissected. A 0.15 M ice-cold KCl solution was perfused through the liver portal vein to remove blood from the liver and extract the liver. The liver was homogenized in KCl solution at 10 times the liver’s weight , and the protein concentration was quantified by the Bradford protein method using bovine serum albumin as a standard. A lipid peroxidation test was performed using a slightly modified version of the method described.
Reaction mixtures consisted of 300 μL of liver ho mogenate (11 mg protein/mL) , 300 μL of 50 mM Tris -HCl buffer (pH 7.5) containing 10 μM FeSO 4, and 0.4 mM ascorbic acid. Test samples (10 μL) or DMSO blanks were added to the reaction mixture and incubated at 37 °C for 30 min. After incubation, lipid peroxidation was measured by forming thiobarbituric acid reactive substance s. The mixture was subjected to a reaction at 90 °C for 30 min, followed by cooling and subsequent centrifugation (5,000 × g) for 10 min. The absorbance of the resulting supernatant was d etermined at 535 nm, and the percentage of lipid peroxidation inhibition by the sample was computed. DMSO was utilized as a control instead of the test drug, and the […]

Assay [2] is described as follows: Superoxide anion radical scavenging assay (xanthine/xanthine oxidase, NBT). Format: biochemical. Particulars: isolates and standards; mean ± SD, n = 3; read-out: Antioxidant Activity (IC50) Superoxide Anion Radical. The text has this: Superoxide anion radical scavenging assay.
In assay [3] the target is T1, HMG-CoA reductase (HMGR) (Homo sapiens, UniProt P04035).
T1 sequence (P04035 426-888 limits assumed): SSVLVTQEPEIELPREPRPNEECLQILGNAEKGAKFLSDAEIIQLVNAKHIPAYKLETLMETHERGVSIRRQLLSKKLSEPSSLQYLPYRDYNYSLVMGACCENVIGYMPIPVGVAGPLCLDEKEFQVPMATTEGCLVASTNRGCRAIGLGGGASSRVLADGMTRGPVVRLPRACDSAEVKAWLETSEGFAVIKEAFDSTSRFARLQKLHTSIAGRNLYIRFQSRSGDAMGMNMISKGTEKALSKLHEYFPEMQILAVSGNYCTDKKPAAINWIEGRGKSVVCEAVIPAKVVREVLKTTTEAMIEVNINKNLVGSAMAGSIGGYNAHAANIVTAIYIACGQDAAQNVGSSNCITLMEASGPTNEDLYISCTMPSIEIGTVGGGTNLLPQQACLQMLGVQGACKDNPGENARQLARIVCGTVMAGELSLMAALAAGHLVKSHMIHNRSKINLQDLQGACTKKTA
Nature of the assay: HMG-CoA reductase (HMGR) inhibition assay, NADPH oxidation at 340 nm. Format: biochemical. As to the method:
The HMGR activity assay was optimized using a 96-well microplate reader to measure nicotinamide adenine dinucleotide phosphate (NADPH) oxidation during enzyme turnover. Each well was loaded with a mixture comprising 89 μL of 50 mM sodium phosphate buffer (pH 6.8), 0.8 mM NADPH, and 2 μg of the enzyme (2–8 units/mg). To initiate the reaction, 1 μL of the test sample and 10 μL of 0.8 mM HMG-CoA were introduced to the well. […] The activity of HMGR was assessed by monitoring the reduction in NADPH absorbance at 340 nm for a duration of 900 s at 37 °C.

Assay [4] can be described thus: DPPH radical scavenging assay. To be noted: read-out: Antioxidant Activity (IC50) DPPH, isolates and standards, mean ± SD, n = 3. A general note: DPPH is a stable violet radical that fades when it is reduced.
Procedure: As positive controls, ascorbic acid, quercetin, resveratrol, and Trolox were employed. Triplicate measurements were performed for each sample, and the mean values were determined.
The extracts and isolates were dissolved in dimethyl sulfoxide (DMSO) at concentrations
ranging from 0.1 to 10 mg/mL and 0.1 to 10 mM, respectively. Subsequently, they were
combined with an ethanol solution of DPPH (100 μM). The DPPH solution (190 μL per well)
and the samples (10 μL per well) were incubated in a 96-well microplate at 37 °C for 30 minutes
under dark conditions. The absorbance at 515 nm was quantified using a microplate reader, and
the percentage inhibition (%) of each sample was calculated by comparing it with the control
group treated with DMSO. Linear regression analysis was employed to estimate the IC50 values,
which indicated the concentration of test samples required to inhibit 50% of the free radicals.
In assay [5] the test system is THP-1 macrophage foam cells. Put plainly: ox-LDL-induced macrophage foam cell formation, Oil Red O staining. The format is cell-based. Particulars: Homo sapiens, 50 μg/mL ox-LDL, 16 h, positive control, read-out: Inhibitory effect on foam cell formation.
Procedure: This approach aimed to examine the impact of these substances on lipid accumulation and the formation of foam cells. First, we observed the effects of different concentrations (20, 40, and 60 μg/mL) of the solvent extracts on the THP-1 macrophage activity. […] As a result, we selected and optimized the concentration of 50 μg/mL for the solvent extract to be used in the subsequent experiments. […] Following the extraction of the intracellular dye using isopropanol, a quantitative assessment of the intracellular lipid content was conducted.
THP-1 cells (ATCC, TIB-202, Manassas, VA, USA) were obtained and maintained in RPMI-1640 medium (Cytiva, UT, USA), supplemented with 10% fetal bovine serum (FBS; Hyclone, Cytiva, Logan, UT, USA), penicillin (100 U/mL), streptomycin (100 μg/mL), and 2-mercaptoethanol (Sigma-Aldrich, Saint Louis, MO, USA) at a final concentration of 0.05 mM. The cells were cultured at 37 °C in a 5% CO2 atmosphere with humidity. The THP-1 cells in the suspension were treated with 50 nM phorbol-12-myristate-13-acetate (Sigma-Aldrich, USA) for 48 h. […]
THP-1 cells were seeded in 24-well plates at a density of 5 × 10^5 cells/mL and pretreated as described above. […] The absorbance at 450 nm was measured using a multi-plate reader (Synergy Neo, BioTek Instruments, Inc., Winooski, VT, USA) and statistically processed.

SMILES strings stand for the structures.

With `COC(=O)c1cc(O)c(O)c(O)c1Oc1cc2c(c(O)c1O)-c1c(cc(O)c(O)c1O)C(=O)OC1C(COC2=O)OC(O)C(OC(=O)c2cc(O)c(O)c(O)c2)C1OC(=O)c1cc(O)c(O)c(O)c1` (stereo not shown) [Compound 1, Rugosin B methyl ester], the IC50 is 3.54 ± 0.29 µM in assay [1], 4.29 ± 0.23 µM in assay [2], 1.46 ± 0.22 µM in assay [3] and 3.62 ± 0.57 µM in assay [4].

With `O=C(OC1C(O)OC2COC(=O)c3cc(Oc4c(C(=O)O)cc(O)c(O)c4O)c(O)c(O)c3-c3c(cc(O)c(O)c3O)C(=O)OC2C1OC(=O)c1cc(O)c(O)c(O)c1)c1cc(O)c(O)c(O)c1` (stereo not shown) [Compound 2, rugosin B], the IC50 in assay [1] worked out at 6.02 ± 0.14 µM; in assay [2], 5.53 ± 0.21 µM; in assay [3] it was 17.7 ± 0.04 µM; in assay [4], 3 ± 0.08 µM.

With `COC(=O)c1cc(O)c(O)c(O)c1Oc1cc2c(c(O)c1O)-c1c(cc(O)c(O)c1O)C(=O)O[C@H]1[C@H](OC(=O)c3cc(O)c(O)c(O)c3)[C@@H](OC(=O)c3cc(O)c(O)c(O)c3)[C@H](OC(=O)c3cc(O)c(O)c(O)c3)O[C@@H]1COC2=O` [Compound 3, rugosin A methyl ester], the IC50 in assay [1] is 3.83 ± 0.52 µM; in assay [2], 4.25 ± 0.11 µM; in assay [3], 8.4 ± 0.84 µM; in assay [4] it was 4.27 ± 0.45 µM.

As for `O=C(O[C@@H]1O[C@@H]2COC(=O)c3cc(Oc4c(C(=O)O)cc(O)c(O)c4O)c(O)c(O)c3-c3c(cc(O)c(O)c3O)C(=O)O[C@H]2[C@H](OC(=O)c2cc(O)c(O)c(O)c2)[C@H]1OC(=O)c1cc(O)c(O)c(O)c1)c1cc(O)c(O)c(O)c1` [Compound 4, rugosin A], the IC50 is 3.75 ± 0.52 µM in assay [1], 3.21 ± 0.05 µM in assay [2], 12.2 ± 0.5 µM in assay [3] and 3.19 ± 0.13 µM in assay [4].

Turning to `O=C(O[C@@H]1O[C@@H]2COC(=O)c3cc(O)c(O)c(O)c3-c3c(cc(O)c(O)c3O)C(=O)O[C@H]2[C@H](OC(=O)c2cc(O)c(O)c(O)c2)[C@H]1OC(=O)c1cc(O)c(O)c(O)c1)c1cc(O)c(O)c(O)c1` [Compound 5, eugeniin], the IC50 in assay [1] was 3.61 ± 0.34 µM; in assay [2], 4.75 ± 0.14 µM; in assay [3], 26.7 ± 0.9 µM; in assay [4], 4.34 ± 0.17 µM.

As to `O=C(OC1C(O)OC2COC(=O)c3cc(O)c(O)c(O)c3-c3c(cc(O)c(O)c3O)C(=O)OC2C1OC(=O)c1cc(O)c(O)c(O)c1)c1cc(O)c(O)c(O)c1` (stereo not shown) [Compound 6, tellimagrandin I], the IC50 in assay [1] is 3.93 ± 0.53 µM; in assay [2], 4.1 ± 0.53 µM; in assay [3] it was over 50 µM; in assay [4], 4.7 ± 0.14 µM.

For `O=C(OC[C@H]1O[C@@H](OC(=O)c2cc(O)c(O)c(O)c2)[C@H](OC(=O)c2cc(O)c(O)c(O)c2)[C@@H](OC(=O)c2cc(O)c(O)c(O)c2)[C@@H]1OC(=O)c1cc(O)c(O)c(O)c1)c1cc(O)c(O)c(O)c1` [Compound 7, 1,2,3,4,6-penta-O-galloyl-β-D-glucose], the IC50 in assay [1] was determined as 3.87 ± 0.61 µM; in assay [2], 4.47 ± 0.07 µM; in assay [3] it was 4.98 ± 0.18 µM; in assay [4], 3.81 ± 0.19 µM.

For `O=C(OC[C@H]1OC(O)[C@H](OC(=O)c2cc(O)c(O)c(O)c2)[C@@H](OC(=O)c2cc(O)c(O)c(O)c2)[C@@H]1OC(=O)c1cc(O)c(O)c(O)c1)c1cc(O)c(O)c(O)c1` (stereo partly drawn) [Compound 8, 2,3,4,6-tetra-O-galloyl-D-glucose], the IC50 turned out to be 3.54 ± 0.15 µM in assay [1], 3.6 ± 0.23 µM in assay [2], 13.8 ± 1.53 µM in assay [3] and 20.9 ± 0.98 µM in assay [4].

In the case of `O=C(OC[C@H]1O[C@@H](OC(=O)c2cc(O)c(O)c(O)c2)[C@H](OC(=O)c2cc(O)c(O)c(O)c2)[C@@H](OC(=O)c2cc(O)c(O)c(O)c2)[C@@H]1O)c1cc(O)c(O)c(O)c1` [Compound 9, 1,2,3,6-tetra-O-galloyl-β-D-glucose], the IC50 was 5.88 ± 0.13 µM in assay [1], 4.64 ± 0.45 µM in assay [2], 41.5 ± 3.9 µM in assay [3] and 3.94 ± 0.25 µM in assay [4]. In addition, in assay [3], the “HMGR inhibition, result in words” value is on record as “weak effect”.

On to `O=C(O)[C@H]1O[C@@H](Oc2c(-c3ccc(O)c(O)c3)oc3cc(O)cc(O)c3c2=O)[C@H](O)[C@@H](O)[C@@H]1O` [Compound 10, quercetin 3-glucuronic acid], for which the IC50 in assay [1] is 34.1 ± 2.98 µM; in assay [2], 21.5 ± 2.03 µM; in assay [3] it was over 50 µM; in assay [4] it was 15.7 ± 0.15 µM.

As to `O=C(O)[C@H]1O[C@@H](Oc2c(O)cc(O)c3c(=O)c(O)c(-c4ccc(O)cc4)oc23)[C@H](O)[C@@H](O)[C@@H]1O` [Compound 11, kaempferol 8-O-glucuronic acid], the IC50 in assay [1] was over 50 µM; in assay [2] it was 17.7 ± 0.3 µM; in assay [3], over 50 µM; in assay [4], 23 ± 0.45 µM.

In the case of `CC[C@H](C)C(=O)O[C@H]1C[C@H](O)C=C2C=C[C@H](C)[C@H](CC[C@@H](O)C[C@@H](O)CC(=O)O)[C@H]21` [Pravastatin], the inhibition at 5 µM in assay [5] was found to be 77%.

In the case of `O=c1c(O)c(-c2ccc(O)c(O)c2)oc2cc(O)cc(O)c12` [Quercetin, reference compound], the IC50 came to 7.45 ± 1.33 µM in assay [1], 21.3 ± 0.34 µM in assay [2], 17.3 ± 1.09 µM in assay [4] and 42.1 µM in assay [4] (listed as quercetin).

With `Oc1ccc(/C=C/c2cc(O)cc(O)c2)cc1` [Resveratrol, reference compound], the IC50 is 47.6 ± 6.35 µM in assay [1], over 50 µM in assay [2] and 42.1 ± 1.91 µM in assay [4].

On to `Cc1c(C)c2c(c(C)c1O)CCC(C)(C(=O)O)O2` (stereo not shown) [Trolox, reference compound], for which the IC50 in assay [1] was 33.2 ± 3.6 µM; in assay [2] it was over 50 µM; in assay [4] it was 31.3 ± 1.27 µM.

Turning to `O=C1O[C@H]([C@@H](O)CO)C(O)=C1O` [Vitamin C, ascorbic acid, reference compound], the IC50 in assay [2] was over 50 µM; in assay [4], 31.7 ± 0.21 µM.

The IC50 is the concentration at which inhibition is half-maximal.

The values are drawn from PMC10818259, “Antioxidant and Inhibitory Activities of Filipendula glaberrima Leaf Constituents against HMG-CoA Reductase and Macrophage Foam Cell Formation” (Molecules, 2024).
